Laboratory results: US8722023B2, “Depigmenting or brigthening cosmetic composition comprising at least one oxazolin as an active ingredient” (Laboratoires Expanscience, priority 2005, dated 2014)

What was measured:
[1] = test system: Melanocyte/keratinocyte co-cultures (NHEM-NHEK; M/K); experiment: Viability (MTT test) of M/K co-cultures; assay type: cell-based, human; settings: for Viability percentage (MTT test): 240 hours
Protocol: (§1) Melanocyte/keratinocyte co-cultures (NHEM-NHEK; M/K) are incubated for 240 hours, in the absence or presence of OX100. The quantity of melanin present in the cells after incubation is measured by spectrophotometry. 1) M/K co-cultures are inoculated in medium free of PMA (phorbol myristate acetate) and are brought to 60-80% confluence for the test. 2) Three identical culture series are prepared in order to measure: • cytotoxicity by a MTT (tetrazolium salt) test and by morphological observation of the cells, • quantity of melanin, • quantity of total proteins (in order to determine the ratio of melanin to total protein). 3) Treatment conditions are as follows: • OX100 at three concentrations: 2×10^−6, 10^−5, 2×10^−5 M. • Kojic acid (reference depigmenting molecule). • IBMX (3-isobutyl-1-methylxanthine, pro-pigmenting reference molecule). Each treatment condition is carried out in triplicate. The co-cultures are incubated for 240 hours in the presence or absence of the compounds above. Irradiation by ultraviolet rays (25 mJ/cm^2 of UVB+300 mJ/cm^2 of UVA) is carried out four times per day for consecutive four days.

[2] = test system: normal human melanocytes in co-culture (NHEM-NHEK; M/K); experiment: Production of melanin in M/K co-cultures, irradiated or not; assay type: cell-based; settings: for quantity of melanin compared to the control (control = 100) / variation of the quantity of melanin compared to the control (value in brackets): 240 hours
Protocol: as §1, with “The effect of OX100 was studied on the production of melanin by normal human melanocytes in co-culture (NHEM-NHEK; M/K) irradiated or not. Melanocyte/keratinocyte” for “Melanocyte/keratinocyte”, “days. At the end of the treatment, the cellular monolayers are washed. After cell lysis, the melanin crystals are extracted and solubilized. The melanin is quantified by measurement of the OD (optical density) at 450 nm and by comparison with a range of melanin standards.” for “days.”

[3] = Overall assessment of the product's acceptability and effectiveness by the volunteers; assay type: in vivo, human (adult female volunteers); parameters: unit not given here; settings: panel of 21 volunteers
Description: Overall Assessment of the Product's Acceptability and Effectiveness by the Volunteers

[4] = Assessment of cutaneous acceptability by the volunteers; assay type: in vivo, human (adult female volunteers); parameters: volunteers reporting no cutaneous manifestations: unit not given here
Description: Assessment of Cutaneous Acceptability by the Volunteers

[5] = test system: skin of the hands (spot-free area and pre-identified pigmentation spot); experiment: Colorimetric measurements (Chromameter) on the hands, treated hand vs. control hand; assay type: in vivo, human (adult female volunteers); settings: for Individual typological angle (ITA), treated hand / Lightness variable L*, treated hand: mean ± SEM
Description: Among these volunteers, 14% were North-African in origin and 86% Mediterranean, including 76% of phototype IV and 10% of phototype V. All of these volunteers had lentigo pigmentation spots on the hands and most had them on the face. COLORIMETRIC MEASUREMENTS (Chromameter™): Variance homogeneity and distribution normality were verified in all cases. Measurements are taken on the hands, in an area without pigmentation spots. The results correspond to the means and deviations with respect to the mean-SEM. The time and product effects results with values less than 0.05 are statistically significant. The result corresponding to both the time and product effects gives the value of the probability of the differences Δ (T=6 weeks minus T0) by the Student's t-test in a paired series (bilateral significance test, p<0.05). Measurements are carried out on the hands in an area with pigmentation spots. The results correspond to the means and deviations with respect to the mean-SEM.

[6] = test system: lentigo pigmentation spots, skin of hands and face; experiment: Clinical evaluation of hands and face after six weeks of application; assay type: in vivo, human (adult female volunteers)
Description: Among these volunteers, 14% were North-African in origin and 86% Mediterranean, including 76% of phototype IV and 10% of phototype V. All of these volunteers had lentigo pigmentation spots on the hands and most had them on the face. The results of the statistically significant variation, after six weeks of application, of some of the criteria evaluated are given in table 6 below: The percentages correspond to variations with respect to the initial evaluations, the p value corresponds to probability p with respect to the initial evaluations (Wilcoxon test, bilateral significance test, p<0.05). For measurements of pigmentation spot intensity, the intensity of the spot is identified beforehand. The results of the statistically significant variation, after six weeks of application, of some of the criteria evaluated are given in table 7 below: The percentages correspond to variations with respect to the initial evaluations, the p value corresponds to probability p with respect to the initial evaluations (Wilcoxon test, bilateral significance test, p<0.05). For measurements of pigmentation spot intensity, the intensity of the spot is identified beforehand.

[7] = area with spots (pre-identified pigmentation spot), T = 0 (before treatment)
[8] = area with spots (pre-identified pigmentation spot), T = 6 weeks
[9] = spot-free area of the hands, T = 0 (before treatment)
[10] = spot-free area of the hands, T = 6 weeks

CC(C)Cn1c(=O)n(C)c(=O)c2[nH]cnc21 [IBMX, 3-isobutyl-1-methylxanthine, reference compound]
Viability percentage (MTT test) ([1]; 200 μM, With UV): 111% | Viability percentage (MTT test) ([1]; 200 μM, Without UV): 118% | quantity of melanin compared to the control (control = 100) ([2]; 200 μM, With UV): 114% | quantity of melanin compared to the control (control = 100) ([2]; 200 μM, Without UV): 118% | variation of the quantity of melanin compared to the control (value in brackets) ([2]; With UV): +14% | variation of the quantity of melanin compared to the control (value in brackets) ([2]; Without UV): +15%

O=c1cc(CO)occ1O [Kojic acid, reference compound]
Viability percentage (MTT test) ([1]; 0.0156 mg/ml, With UV): 99% | Viability percentage (MTT test) ([1]; 0.0156 mg/ml, Without UV): 102% | quantity of melanin compared to the control (control = 100) ([2]; 15.6 μg/ml, With UV): 83% | variation of the quantity of melanin compared to the control (value in brackets) ([2]; 15.6 μg/ml, With UV): −20% | quantity of melanin compared to the control (control = 100) ([2]; 15.6 μg/ml, Without UV): 74% | variation of the quantity of melanin compared to the control (value in brackets) ([2]; 15.6 μg/ml, Without UV): −35%

CCCCCCCCCCCC1=NC(C)(C)CO1 [OX100, 2-undecyl-4,4-dimethyl-1,3-oxazoline]
Viability percentage (MTT test) ([1]; 2 × 10^−5 M, With UV): 105% | Viability percentage (MTT test) ([1]; 2 × 10^−5 M, Without UV): 115% | Viability percentage (MTT test) ([1]; 2 × 10^−6 M, With UV): 97% | Viability percentage (MTT test) ([1]; 2 × 10^−6 M, Without UV): 102% | Viability percentage (MTT test) ([1]; 10^−5 M, With UV): 99% | Viability percentage (MTT test) ([1]; 10^−5 M, Without UV): 108% | toxicity for the M/K co-cultures, in words ([1]; at the concentrations tested): not toxic | quantity of melanin compared to the control (control = 100) ([2]; 2 × 10^−5 M, With UV): 104% | variation of the quantity of melanin compared to the control (value in brackets) ([2]; 2 × 10^−5 M, With UV): +4% | quantity of melanin compared to the control (control = 100) ([2]; 2 × 10^−5 M, Without UV): 89% | variation of the quantity of melanin compared to the control (value in brackets) ([2]; 2 × 10^−5 M, Without UV): −12% | quantity of melanin compared to the control (control = 100) ([2]; 2 × 10^−6 M, With UV): 100% | variation of the quantity of melanin compared to the control (value in brackets) ([2]; 2 × 10^−6 M, With UV): 0% | quantity of melanin compared to the control (control = 100) ([2]; 2 × 10^−6 M, Without UV): 102% | variation of the quantity of melanin compared to the control (value in brackets) ([2]; 2 × 10^−6 M, Without UV): −1% | quantity of melanin compared to the control (control = 100) ([2]; 10^−5 M, With UV): 99% | variation of the quantity of melanin compared to the control (value in brackets) ([2]; 10^−5 M, With UV): −1% | quantity of melanin compared to the control (control = 100) ([2]; 10^−5 M, Without UV): 104% | variation of the quantity of melanin compared to the control (value in brackets) ([2]; 10^−5 M, Without UV): +4% | effect on melanin in the irradiated study model, in words ([2]; irradiated co-cultures (UVB + UVA)): neutralizes the effect of ultraviolet rays | inhibition of the synthesis of melanin ([2]; non-irradiated co-cultures, 2.10^−5 M, p<0.01): roughly 12% | volunteers reporting somewhat good to good effectiveness as a depigmenting/lightening product [3]: Thirty-eight | dermatological tolerance, conclusion in words ([4]; conclusion of Example 6): dermatologically well-tolerated | volunteers reporting no cutaneous manifestations ([4]; panel of 21 volunteers): Ninety-five | volunteers reporting no ocular manifestations ([4]; panel of 21 volunteers): 100% | Individual typological angle (ITA), treated hand [5, 7]: 5.0 ± 4.5 | Lightness variable L*, treated hand [5, 7]: 51.2 ± 1.1 | Individual typological angle (ITA), treated hand [5, 8]: 11.0 ± 5.2 | Lightness variable L*, treated hand [5, 8]: 52.4 ± 1.2 | increase in chromaticity coordinate L* ([5]; area with spots, six weeks of applications, compared to initial values and control hand, p=0.048): +2% | Individual typological angle (ITA), treated hand [5, 9]: 38.5 ± 2.4 | Lightness variable L*, treated hand [5, 9]: 58.4 ± 0.7 | Individual typological angle (ITA), treated hand [5, 10]: 44.1 ± 2.4 | Lightness variable L*, treated hand [5, 10]: 59.2 ± 0.7 | increase in ITA ([5]; spot-free area, six weeks of applications, compared to initial values and control hand, p=0.008): +13% | increase in chromaticity coordinate L* ([5]; spot-free area, six weeks of applications, compared to initial values and control hand, p=0.017): +2% | COLOR LIGHTNESS, variation with respect to initial evaluation ([6]; face, p = 0.0001 (Wilcoxon)): +22% (p = 0.0001) | INTENSITY OF THE PIGMENTATION SPOT, variation with respect to initial evaluation ([6]; face, p = 0.0196 (Wilcoxon)): −8% (p = 0.0196) | COLOR UNIFORMITY, variation with respect to initial evaluation ([6]; face, p = 0.0455 (Wilcoxon)): +4% (p = 0.0455) | SKIN LIGHTNESS, variation with respect to initial evaluation ([6]; hands, p = 0.0002 (Wilcoxon)): +16% (p = 0.0002) | INTENSITY OF THE PIGMENTATION SPOT, variation with respect to initial evaluation ([6]; hands, p = 0.0143 (Wilcoxon)): −5% (p = 0.0143) | SKIN UNIFORMITY, variation with respect to initial evaluation ([6]; hands, p = 0.0209 (Wilcoxon)): +10% (p = 0.0209)
